In patent US10714208B2, “Computer systems for treating diseases” (Biotempus Limited, priority 2009, dated 2020):

System: metastatic melanoma
Assay: Pilot clinical study: temozolomide chemotherapy timed relative to the CRP oscillation cycle
Format: in vivo, human
Protocol: A pilot clinical study was conducted on 12 patients with metastatic melanoma (median age 61; 4 female; 7 with M1c disease) at The Mayo Clinic, Rochester, Minn., USA headed by Dr Svetomir Markovic. Serial CRP measurements were taken every 2-3 days for 2 weeks. The CRP oscillation cycle was identified by analysis of the raw data without any computer aided modelling, and chemotherapy with temozolomide (200 mg/m2 for 5 days, every 28 days) was initiated. Patients were evaluated for clinical and immune response endpoints every 8 weeks until progression.

Q: How did the time to progression (the other patients, treated post CRP-peak) turn out when `Cn1nnc2c(C(N)=O)ncn2c1=O` [temozolomide] was run?
A: Its time to progression is < 5 months.

Q: What about the remain progression-free (two patients with metastatic melanoma treated in the pre-peak section of the CRP cycle, temozolomide 200 mg/m2 for 5 days, every 28 days) of the same molecule?
A: The remain progression-free was > 2 years.
